Data on 42 compounds can be found in paper PMC8406298, “Discovery of Fungus-Specific Targets and Inhibitors Using Chemical Phenotyping of Pathogenic Spore Germination” (mBio, 2021).

Molecules are shown by their SMILES.

In series [1] the test system is Cryptococcus yeast (CHY3833 and CHY3836). Nature of the series: Yeast replication secondary screen (OD600). Type of series: cell-based, Cryptococcus neoformans serotype D (deneoformans). Conditions: 10 μM, 12 h at 30°C. As to the method:
(ii) Yeast replication. CHY3833 and CHY3836 were each grown in YPD liquid overnight at 30°C to saturation and then resuspended in 0.5× YPD at an OD600 of 0.005. Strains were aliquoted into 384-well plates with inhibitors and grown for 12 h at 30°C at […] before OD600 readings were taken. Compounds that caused a >10% decrease in growth were considered yeast growth inhibitors.

The subject of series [2] is normal human dermal fibroblasts (NHDF) cells. Briefly: Fibroblast cytotoxicity (CellTiter-Glo). Type of series: cell-based. Conditions: 10 µM. As to the method: PrimaPure normal human dermal fibroblasts (NHDF) cells (Genlatis PH10605A) were cultured and passaged in fibroblast growth medium (Genlatis PM116500) according to the manufacturer’s protocol. NHDF cells (1 × 10^3 per well) were plated in a 384-well plate in cell culture medium. The cells were incubated with each compound of interest at 10 μM concentration for 72 h at 37°C and 5% CO2. Following treatment, CellTiter-Glo (Promega) reagent was used to assay ATP-dependent luminescence and thus provide a measure of cell viability. […] For cytotoxicity dose-response curves (Fig. 4C and Fig. 5C), compounds were titrated from 80 μM to 0.5 μM in duplicates.
A general note: Cellular ATP, detected with luciferase, serves as a proxy for viable cell number.

Consider `Cc1cc(C(=O)NCCc2nc(C3CC3)cc(C(F)(F)F)n2)c(C)o1` [compound 71797038], for which the “Yeast Inhibition: % Inhibition” value in series [1] is on record as 47.0%. In addition, the “Cytotoxicity: Relative Cell Viability (% of Negative Control)” value in series [2] is 94.6 % of Negative Control.
For `Cc1ccc(C)c(CSc2nc3ccccc3[nH]2)c1` [compound 899259], in series [1], the “Yeast Inhibition: % Inhibition” value was determined as 45.3%. In series [2], the “Cytotoxicity: Relative Cell Viability (% of Negative Control)” value is on record as 84.5 % of Negative Control.
On the same counts, the results for `O=C(NC1CCN(c2nccs2)C1)c1nc2ccccc2s1` (stereo not drawn) [compound 76149097] are 10.4% and 94.5 % of Negative Control.
For `Cc1c(-n2c(-c3ccccc3)csc2=NC(=O)c2ccccc2)c(=O)n(-c2ccccc2)n1C` [compound 1528700], the “Yeast Inhibition: % Inhibition” value in series [1] is listed as -8.8%. The “Cytotoxicity: Relative Cell Viability (% of Negative Control)” value in series [2] is recorded as 93.1 % of Negative Control.
On the same counts, the results for `O=C(c1ccc2nsnc2c1)N1CCSC(c2ccccc2Cl)CC1` (stereo not drawn) [compound 76151751] are 14.7% and 97.8 % of Negative Control.
The like results for `N#CC(C#N)=NNc1cccc(Br)c1` [compound 4199189] were, in that order, 101.2% and 31.1 % of Negative Control.
On the same counts, the results for `COc1ccc(CCNC(=O)c2c(O)nc3ccccn3c2=O)cc1OC` [compound 16010290] are -0.7% and 103.5 % of Negative Control.
For `CC1Cc2ccccc2N1C(=O)CCn1c(=O)sc2ccccc21` (stereo not drawn) [compound 3163780], in series [1], the “Yeast Inhibition: % Inhibition” value is reported as -1.3%. In addition, the “Cytotoxicity: Relative Cell Viability (% of Negative Control)” value in series [2] is listed as 59.5 % of Negative Control.
The like results for `OC(COCC12CC3CC(CC(C3)C1)C2)CN1CCc2ccccc2C1` (stereo not drawn) [compound 16456321] were, in that order, 84.7% and 12.1 % of Negative Control.
The like results for `COc1cc(-c2c(C#N)c(N)nc3c2c(C)nn3-c2ccc(C)cc2)cc(OC)c1OC` [compound 4893324] were, in that order, -3.0% and 84.7 % of Negative Control.
On the same counts, the results for `COc1cc(NS(=O)(=O)c2cccc(C(F)(F)F)c2)ncn1` [compound 71795763] are -14.5% and 90.4 % of Negative Control.
As for `O=C(Cc1cccc2ccccc12)N1CCC(c2ccsc2)CC1` [compound 71786990], the “Yeast Inhibition: % Inhibition” value in series [1] is recorded as 8.3%. Moreover, in series [2], the “Cytotoxicity: Relative Cell Viability (% of Negative Control)” value is on record as 94.3 % of Negative Control.
On to `O=C1/C(=C/c2ccncc2)SC(=S)N1Nc1ccccc1` [compound 1636480], for which, in series [1], the “Yeast Inhibition: % Inhibition” value is 67.7%. Besides, the “Cytotoxicity: Relative Cell Viability (% of Negative Control)” value in series [2] is given as 86.8 % of Negative Control.
As for `Cc1ccc(-c2nnc(Cn3cnc4ccccc43)o2)cc1` [compound 16456942], the “Yeast Inhibition: % Inhibition” value in series [1] worked out at 57.7%. Moreover, the “Cytotoxicity: Relative Cell Viability (% of Negative Control)” value in series [2] is listed as 69.7 % of Negative Control.
As to `Cc1cc(C)c2sc(NN)nc2c1` [compound 2049855], the “Yeast Inhibition: % Inhibition” value in series [1] was 100.6%. In addition, the “Cytotoxicity: Relative Cell Viability (% of Negative Control)” value in series [2] is 38.9 % of Negative Control.
On to `COc1ccc(CCN2C(=O)C=CC2=O)cc1OC` [compound 282938], for which the “Yeast Inhibition: % Inhibition” value in series [1] was determined as 101.4%. In series [2], the “Cytotoxicity: Relative Cell Viability (% of Negative Control)” value is 24.9 % of Negative Control.
In the case of `COc1cccc2cc(-c3csc(NN=C4CCN(C)CC4)n3)c(=O)oc12` [compound 4913014], in series [1], the “Yeast Inhibition: % Inhibition” value was determined as 99.6%. For the same compound, in series [2], the “Cytotoxicity: Relative Cell Viability (% of Negative Control)” value was 68.7 % of Negative Control.
In the case of `COc1ccc(Nc2nc3ccc(OC)cc3s2)cc1` [compound 7086348], the “Yeast Inhibition: % Inhibition” value in series [1] was 31.0%. In addition, the “Cytotoxicity: Relative Cell Viability (% of Negative Control)” value in series [2] was 91.3 % of Negative Control.
The like results for `CC(C)C(=O)Nc1nnc(SCc2cccc(F)c2)s1` [compound 4086498] were, in that order, 20.2% and 106.8 % of Negative Control.
On the same counts, the results for `FC(F)(F)c1cccc(N2CCN(c3ncnc4sccc34)CC2)c1` [compound 2497352] are 92.5% and 96.2 % of Negative Control.
On the same counts, the results for `O=C1C(NS(=O)(=O)c2ccccc2)=C/C(=N\S(=O)(=O)c2ccc(F)cc2)c2ccccc21` [compound 16805904] are -24.2% and 89.3 % of Negative Control.
As for `C(=C\c1cccs1)/c1nnc(-c2cccs2)o1` [compound 6263817], in series [1], the “Yeast Inhibition: % Inhibition” value was 49.0%. Also, in series [2], the “Cytotoxicity: Relative Cell Viability (% of Negative Control)” value is reported as 84.3 % of Negative Control.
`C[n+]1sc(Nc2ccccc2)nc1-c1ccccc1` [compound 803194]: the “Yeast Inhibition: % Inhibition” value in series [1] is 98.4%. The “Cytotoxicity: Relative Cell Viability (% of Negative Control)” value in series [2] is given as 16.5 % of Negative Control.
On the same counts, the results for `COc1ccc2nc(NS(=O)(=O)c3ccc(Cl)s3)sc2c1` [compound 16934153] are -7.4% and 76.4 % of Negative Control.
Consider `Cc1cc(C(=O)N2CCC(Oc3ncccc3Cl)CC2)c(C)o1` [compound 71798856], for which, in series [1], the “Yeast Inhibition: % Inhibition” value is 54.8%. Moreover, in series [2], the “Cytotoxicity: Relative Cell Viability (% of Negative Control)” value was 93.6 % of Negative Control.
On the same counts, the results for `OC(COc1ccc(Br)cc1Br)CN1CCc2ccccc2C1` (stereo not drawn) [compound 43842355] are 76.5% and 28.9 % of Negative Control.
With `O=C(Nc1nc2c(Br)cccc2s1)C1CC1` [compound 7202929], the “Yeast Inhibition: % Inhibition” value in series [1] is given as 16.5%. Further, the “Cytotoxicity: Relative Cell Viability (% of Negative Control)” value in series [2] is given as 66.1 % of Negative Control.
Consider `CC1CCN(c2ncnc3sccc23)CC1` [compound 2238992], for which the “Yeast Inhibition: % Inhibition” value in series [1] amounted to 73.6%. In series [2], the “Cytotoxicity: Relative Cell Viability (% of Negative Control)” value is listed as 70.0 % of Negative Control.
Take `CCCCc1nnc(NC(=O)c2cc(OC)ncn2)s1` [compound 91628556]: in series [1], the “Yeast Inhibition: % Inhibition” value is 83.1%. For the same compound, the “Cytotoxicity: Relative Cell Viability (% of Negative Control)” value in series [2] is listed as 88.7 % of Negative Control.
Take `COc1ccc(CCNc2ncnc3scc(-c4cccs4)c23)cc1OC` [compound 2008712]: in series [1], the “Yeast Inhibition: % Inhibition” value is 68.9%. In series [2], the “Cytotoxicity: Relative Cell Viability (% of Negative Control)” value is 97.9 % of Negative Control.
The like results for `COC(=O)c1c(NC(=O)c2ccc(C(C)(C)C)cc2)sc2c1CCN(C(C)C)C2` [compound 4684724] were, in that order, 50.4% and 34.9 % of Negative Control.
On the same counts, the results for `Cc1cc(C(=O)NCC#CCOc2cccc(C(F)(F)F)c2)c(C)o1` [compound 71803023] are 44.0% and 90.7 % of Negative Control.
With `CSC1=Nc2cccnc2Nc2ccccc21` [compound 16824016], the “Yeast Inhibition: % Inhibition” value in series [1] is given as 20.9%. In series [2], the “Cytotoxicity: Relative Cell Viability (% of Negative Control)” value was 94.9 % of Negative Control.
Turning to `CCOC(=O)c1c(-c2ccc(C)o2)csc1NC(=O)c1ccc2c(c1)OCCO2` [compound 1186249], in series [1], the “Yeast Inhibition: % Inhibition” value worked out at 44.6%. Besides, the “Cytotoxicity: Relative Cell Viability (% of Negative Control)” value in series [2] is given as 75.3 % of Negative Control.
The like results for `Cc1cccc2sc(OC3CN(C(=O)Cc4ccc(F)cc4)C3)nc12` [compound 71796286] were, in that order, 3.1% and 99.2 % of Negative Control.
On the same counts, the results for `O=C(Nc1nc2c(s1)CN(C(=O)C1(c3cccs3)CCCC1)CC2)c1ccoc1` [compound 71788301] are 8.3% and 91.4 % of Negative Control.
Regarding `O=C(C1COc2ccccc2O1)N1CCN(c2nc3c(F)cccc3s2)CC1` (stereo not drawn) [compound 16032794], the “Yeast Inhibition: % Inhibition” value in series [1] came to 5.2%. For the same compound, the “Cytotoxicity: Relative Cell Viability (% of Negative Control)” value in series [2] was 115.2 % of Negative Control.
The like results for `COc1ccc(NC(=O)CN2CCN(c3c(C)cccc3C)CC2)cc1` [compound 2200363] were, in that order, 64.6% and 71.8 % of Negative Control.
The like results for `Nc1cc(Cl)c([N+](=O)[O-])cc1OCc1ccccc1` [compound 3521356] were, in that order, 52.3% and 102.1 % of Negative Control.
The like results for `Cc1ccc(NS(=O)(=O)N2CCCCCC2)cc1Cl` [compound 8720355] were, in that order, 45.8% and 71.9 % of Negative Control.
`O=C(CSCc1ccccc1)N1CCC(c2cccs2)CC1` [compound 71786876]: the “Yeast Inhibition: % Inhibition” value in series [1] came to 12.2%. In series [2], the “Cytotoxicity: Relative Cell Viability (% of Negative Control)” value is given as 97.1 % of Negative Control.
On the same counts, the results for `Nc1nc(COc2ccc3ccccc3c2)cs1` [compound 973573] are 75.7% and 108.1 % of Negative Control.
